Each structure is given as a SMILES string. Converted amounts (≈) assume the structure as drawn.

Holding throughout (type): functional
Test [1] deals with Enterococcus faecalis. The experiment in a line: Antibacterial activity against vancomycin-susceptible Enterococcus faecalis ATCC29212 assessed as bacterial growth inhibition incubated for 20 hrs by CLSI based broth microdilution method. (In general: Broth dilution looks for growth in wells or tubes with falling amounts of substance.)
Test [2] concerns Streptococcus pyogenes. Put plainly: Antibacterial activity against erythromycin-resistant Streptococcus pyogenes 2 clinical isolate assessed as bacterial growth inhibition incubated for 20 hrs by CLSI based broth microdilution method.
The test system of test [3] is Escherichia coli. Put plainly: Antibacterial activity against penicillin-susceptible Escherichia coli ATCC25922 assessed as bacterial growth inhibition incubated for 20 hrs by CLSI based broth microdilution method.
Test [4] has as its system Staphylococcus aureus. The experiment in a line: Antibacterial activity against penicillin-resistant Staphylococcus aureus ATCC31007 assessed as bacterial growth inhibition incubated for 20 hrs by CLSI based broth microdilution method.
Test [5] relates to Enterococcus faecalis. Put plainly: Antibacterial activity against vancomycin-resistant Enterococcus faecalis ATCC51299 assessed as bacterial growth inhibition incubated for 20 hrs by CLSI based broth microdilution method.
A further test deals with Acinetobacter baumannii. Put plainly: Antibacterial activity against Acinetobacter baumannii ATCC19606 assessed as bacterial growth inhibition incubated for 20 hrs by CLSI based broth microdilution method.
Another test deals with Klebsiella pneumoniae. Put plainly: Antibacterial activity against Klebsiella pneumoniae ATCC BAA-1902 assessed as bacterial growth inhibition incubated for 20 hrs by CLSI based broth microdilution method.
The subject of test [6] is Staphylococcus epidermidis. Put plainly: Antibacterial activity against penicillin-resistant Staphylococcus epidermidis clinical isolate assessed as bacterial growth inhibition incubated for 20 hrs by CLSI based broth microdilution method.
The test system of test [7] is Enterococcus faecium. The experiment in a line: Antibacterial activity against vancomycin-susceptible Enterococcus faecium ATCC19434 assessed as bacterial growth inhibition incubated for 20 hrs by CLSI based broth microdilution method.
Another test relates to Bacillus subtilis. The experiment in a line: Antibacterial activity against penicillin-susceptible Bacillus subtilis ATCC9372 assessed as bacterial growth inhibition incubated for 20 hrs by CLSI based broth microdilution method.
For test [8], the system named is Streptococcus pyogenes. Put plainly: Antibacterial activity against erythromycin-susceptible Streptococcus pyogenes 1 assessed as bacterial growth inhibition incubated for 20 hrs by CLSI based broth microdilution method.
In test [9] the test system is Escherichia coli. The experiment in a line: Antibacterial activity against wild-type Escherichia coli BW25113 assessed as bacterial growth inhibition incubated for 20 hrs by CLSI based broth microdilution method.
Test [10] relates to Staphylococcus aureus. Put plainly: Antibacterial activity against erythromycin-susceptible Staphylococcus aureus ATCC25923 assessed as bacterial growth inhibition incubated for 20 hrs by CLSI based broth microdilution method.
In a further test the test system is Bacillus pumilus. The experiment in a line: Antibacterial activity against penicillin-susceptible Bacillus pumilus CMCC63202 assessed as bacterial growth inhibition incubated for 20 hrs by CLSI based broth microdilution method.
Test [11] concerns Enterococcus faecium. The experiment in a line: Antibacterial activity against vancomycin-resistant Enterococcus faecium ATCC51559 assessed as bacterial growth inhibition incubated for 20 hrs by CLSI based broth microdilution method.
Test [12] deals with Staphylococcus aureus. The experiment in a line: Antibacterial activity against methicillin-resistant Staphylococcus aureus ATCC43300 assessed as bacterial growth inhibition incubated for 20 hrs by CLSI based broth microdilution method.
Test [13] relates to Staphylococcus aureus. The experiment in a line: Antibacterial activity against Staphylococcus aureus clinical isolate assessed as bacterial growth inhibition incubated for 20 hrs by CLSI based broth microdilution method.

For `C[n+]1cc(-c2ccccc2)c(/C=C/c2ccc(N3CCCC3)cc2)cc1-c1ccc2ccccc2c1.[I-]`, the MIC (as a rule, the smallest concentration in the dilution series that meets the test's criterion for growth inhibition) in the test on Enterococcus faecalis [1] worked out at 2 µg/mL; in the test on Streptococcus pyogenes [2], 1 µg/mL; in the test on Escherichia coli [3], 64 µg/mL; in the test on Staphylococcus aureus [4], 1 µg/mL; in the test on Enterococcus faecalis [5], 2 µg/mL; in the test with Acinetobacter baumannii, 1 µg/mL. Also, the MIC turned out to be 16 µg/mL with Klebsiella pneumoniae; 2 µg/mL in test [6]; 1 µg/mL in the test on Enterococcus faecium [7]; 1 µg/mL in the test on Bacillus subtilis; 0.5 µg/mL with Streptococcus pyogenes [8]; 4 µg/mL with Escherichia coli [9]. In addition, the minimal inhibitory concentration (MIC) in the test on Staphylococcus aureus [10] was 0.5 µg/mL; with Bacillus pumilus, 1 µg/mL; in the test on Enterococcus faecium [11], 2 µg/mL; with Staphylococcus aureus [12] it was 0.5 µg/mL; with Staphylococcus aureus [13] it was 0.5 µg/mL.
As to `CN(C)c1ccc(/C=C/c2cc(-c3ccccc3)[n+](C)cc2-c2ccccc2)cc1.[I-]`, the MIC in the test with Enterococcus faecalis [1] was 16 µg/mL; in the test on Streptococcus pyogenes [2] it was 8 µg/mL; with Escherichia coli [3], 32 µg/mL; in the test on Staphylococcus aureus [4] it was 8 µg/mL; in the test on Enterococcus faecalis [5], 16 µg/mL; with Acinetobacter baumannii, 8 µg/mL. The MIC is > 64 µg/mL in the test with Klebsiella pneumoniae; 8 µg/mL in test [6]; 16 µg/mL in the test on Enterococcus faecium [7]; 1 µg/mL with Bacillus subtilis; 8 µg/mL in the test with Streptococcus pyogenes [8]; 64 µg/mL in the test with Escherichia coli [9]. Moreover, the minimal inhibitory concentration (MIC) with Staphylococcus aureus [10] is 0.5 µg/mL; in the test with Bacillus pumilus, 8 µg/mL; with Enterococcus faecium [11] it was 16 µg/mL; in the test on Staphylococcus aureus [12], 2 µg/mL; in the test with Staphylococcus aureus [13] it was 1 µg/mL.
Regarding `Cc1ccccc1-c1c[n+](C)c(-c2ccc(C(C)(C)C)cc2)cc1/C=C/c1ccc(F)cc1.[I-]`, the minimal inhibitory concentration (MIC) with Enterococcus faecalis [1] is 0.5 µg/mL; with Streptococcus pyogenes [2] it was 2 µg/mL; with Escherichia coli [3], 8 µg/mL; in the test on Staphylococcus aureus [4], 1 µg/mL; in the test on Enterococcus faecalis [5], 2 µg/mL; in the test on Acinetobacter baumannii, 2 µg/mL. The minimal inhibitory concentration (MIC) turned out to be 8 µg/mL in the test with Klebsiella pneumoniae; 1 µg/mL in test [6]; 1 µg/mL in the test on Enterococcus faecium [7]; 0.5 µg/mL in the test on Bacillus subtilis; 2 µg/mL with Streptococcus pyogenes [8]; 4 µg/mL in the test on Escherichia coli [9]. For the same compound, the MIC was determined as 1 µg/mL in the test with Staphylococcus aureus [10]; 0.5 µg/mL with Bacillus pumilus; 1 µg/mL in the test with Enterococcus faecium [11]; 0.5 µg/mL with Staphylococcus aureus [12]; 0.25 µg/mL in the test with Staphylococcus aureus [13].
On to `CC[C@H]1OC(=O)[C@H](C)[C@@H](O[C@H]2C[C@@](C)(OC)[C@@H](O)[C@H](C)O2)[C@H](C)[C@@H](O[C@@H]2O[C@H](C)C[C@H](N(C)C)[C@H]2O)[C@](C)(O)C[C@@H](C)CN(C)[C@H](C)[C@@H](O)[C@]1(C)O` [AZITHROMYCIN], for which the minimum inhibitory concentration (MIC) is 1 µg/mL (≈ 1.34 µM) in the test with Enterococcus faecalis [1]; > 64 µg/mL in the test with Streptococcus pyogenes [2]; 64 µg/mL (≈ 85.4 µM) in the test with Escherichia coli [3]; > 64 µg/mL in the test on Staphylococcus aureus [4]; > 64 µg/mL with Enterococcus faecalis [5]; 2 µg/mL (≈ 2.67 µM) in the test with Acinetobacter baumannii. In addition, the MIC is 64 µg/mL (≈ 85.4 µM) with Klebsiella pneumoniae; > 64 µg/mL in [6]; 8 µg/mL (≈ 10.7 µM) with Enterococcus faecium [7]; 0.25 µg/mL (≈ 0.334 µM) in the test with Bacillus subtilis; 0.03 µg/mL (≈ 0.0401 µM) with Streptococcus pyogenes [8]; > 64 µg/mL in the test on Escherichia coli [9]. Besides, the MIC is 0.25 µg/mL (≈ 0.334 µM) in the test with Staphylococcus aureus [10]; 0.5 µg/mL (≈ 0.668 µM) in the test on Bacillus pumilus; > 64 µg/mL in the test on Enterococcus faecium [11]; > 64 µg/mL in the test with Staphylococcus aureus [12]; > 64 µg/mL in the test on Staphylococcus aureus [13].
For `C=CC1=C(C(=O)O)N2C(=O)[C@@H](NC(=O)/C(=N\OCC(=O)O)c3csc(N)n3)[C@H]2SC1` [CEFIXIME], the MIC in the test with Enterococcus faecalis [1] was > 64 µg/mL; in the test on Streptococcus pyogenes [2], < 0.062 µg/mL; in the test with Escherichia coli [3], < 0.062 µg/mL; in the test on Staphylococcus aureus [4] it was > 64 µg/mL; with Enterococcus faecalis [5], > 64 µg/mL; in the test with Acinetobacter baumannii it was 32 µg/mL (≈ 70.6 µM). Further, the minimal inhibitory concentration (MIC) is > 64 µg/mL in the test on Klebsiella pneumoniae; > 64 µg/mL in [6]; > 64 µg/mL in the test on Enterococcus faecium [7]; 2 µg/mL (≈ 4.41 µM) in the test with Bacillus subtilis; < 0.062 µg/mL with Streptococcus pyogenes [8]; < 0.062 µg/mL in the test on Escherichia coli [9]. In addition, the MIC in the test with Staphylococcus aureus [10] is 1 µg/mL (≈ 2.21 µM); in the test on Bacillus pumilus, > 64 µg/mL; in the test on Enterococcus faecium [11], > 64 µg/mL; in the test on Staphylococcus aureus [12] it was 4 µg/mL (≈ 8.82 µM); in the test on Staphylococcus aureus [13], 8 µg/mL (≈ 17.6 µM).
